Measurements as given in patent publication US20250066371A1, “FLUOROALKOXYALKYLENE-DIHYDROIMIDAZO[5,1-D]TETRAZINONE COMPOUNDS AND RELATED COMPOUNDS AND THEIR USE IN TREATING MEDICAL CONDITIONS” (priority 2023, published 2025).
Counter-ions that a name gives are not always drawn. Like-named read-outs stand apart in the source and are kept apart here.

Assays:
Assay type in all cases: cell-based
[1] = test system: LN229 gliobastoma cells MGMT−/MMR−; experiment: Anti-cancer assay, isogenic LN229 cells, nuclei count (Examples 43, 46); conditions: Homo sapiens, read-out: MGMT− MMR− Activity
From the text: (§1) Cytotoxicity of the compounds may be measured in short-term cell viability assays against four isogenic LN229 glioblastoma cell lines engineered to be proficient or deficient in MGMT and/or MMR activity by using short hairpin RNAs (shRNAs) targeting MSH2. This approach allows for determination of the relationship between MGMT status, MMR status, and compound activity. LN229 cells are maintained in Dulbecco's Modified Eagle Medium (DMEM) supplemented with 10% fetal bovine serum, 1% Penicillin/Streptomycin, and 0.1% Fungin. DAY 0: Cells are plated into sterile 96-well plates (Corning Costar 96-well) at a concentration of 500 cells/well using a Multichannel pipettor. Then, assay plates are incubated overnight in a 37° C. 5% CO2 incubator. DAY 1: Compounds are prepared as 50 mM stocks in dimethyl sulfoxide (DMSO) and stored protected from light at room temperature (RT) until use. Prior to compound addition, a two-fold serial dilution of compound stock solutions is performed in DMSO from 30 mM to 0.117 mM in a 96-well Master plate. Vehicle control wells contain DMSO. 97 μL of media is added to each well of a new 96-well plate (Daughter plate) and 3 μL of drug solution from Master plate is added to corresponding wells in the Daughter plate resulting in a 3× plate. Three replicate dilution curves of each compound are run on each assay plate. The final concentration of compounds ranges from 300 μM to 1.171 μM (9-point, 2-fold dilution dose response curve), and the final DMSO concentration is 1%.
(§2) Assay plates are incubated for 120 hours at 37° C. in a humidified 5% CO2 incubator. DAY 5: Following incubation, cells are fixed with 4% paraformaldehyde and stained with Hoechst dye for nuclei visualization. Fixation, staining and washing is performed by using a Thermo Scientific Multidrop Combi. Images are acquired on a BioTek Cytation 5 Cell Imaging Multimode Reader and quantified using Cell Profiler image analysis software. Raw cell count data for test compounds are normalized to percent viability relative to the DMSO vehicle control.
(§3) Isogenic LN229 gliobastoma cells were maintained in Dulbecco's Modified Eagle Medium (DMEM) supplemented with 10% fetal bovine serum, 1% Penicillin/Streptomycin, and 0.1% Fungin. DAY 0: Cells were plated into sterile 96-well plates (Corning Costar 96-well) at a concentration of 500 cells/well using a Multichannel pipettor. Then, assay plates were incubated overnight in a 37° C. 5% CO2 incubator. DAY 1: Compounds were prepared as 50 mM stocks in dimethyl sulfoxide (DMSO) and stored protected from light at room temperature (RT) until use. Prior to compound addition, a two-fold serial dilution of compound stock solutions was performed in DMSO from 30 mM to 0.117 mM in a 96-well Master plate. Vehicle control wells contained DMSO. 97 μL of media was added to each well of a new 96-well plate (Daughter plate) and 3 μL of drug solution from Master plate was added to corresponding wells in the Daughter plate resulting in a 3× plate. Three replicate dilution curves of each compound were run on each assay plate. The final concentration of compounds ranged from 300 μM to 1.171 μM (9-point, 2-fold dilution dose response curve), and the final DMSO concentration was 1%.
as §2, with “plates were” for “plates are”, “cells were” for “cells are”, “washing was” for “washing is”, “Images were” for “Images are”, “compounds were” for “compounds are”, “control. […]” for “control.”

[2] = test system: LN229 gliobastoma cells MGMT−/MMR+; experiment: as above; conditions: Homo sapiens, read-out: MGMT− MMR+ Activity
From the text: as §1, §2, §3
as §2, with “plates were” for “plates are”, “cells were” for “cells are”, “washing was” for “washing is”, “Images were” for “Images are”, “compounds were” for “compounds are”, “control. […]” for “control.”

[3] = test system: LN229 gliobastoma cells MGMT+/MMR−; experiment: Anti-cancer assay, isogenic LN229 cells, nuclei count (Example 43); conditions: Homo sapiens, read-out: MGMT+ MMR− Activity
From the text: as §1, §2, §3
as §2, with “plates were” for “plates are”, “cells were” for “cells are”, “washing was” for “washing is”, “Images were” for “Images are”, “compounds were” for “compounds are”

[4] = test system: LN229 gliobastoma cells MGMT+/MMR+; experiment: as above; conditions: Homo sapiens, read-out: MGMT+ MMR+ Activity
From the text: as §1, §2, §3
as §2, with “plates were” for “plates are”, “cells were” for “cells are”, “washing was” for “washing is”, “Images were” for “Images are”, “compounds were” for “compounds are”

[5] = LN-229, LN229 MGMT−/MMR−, 120 hours
[6] = LN-229, LN229 MGMT−/MMR+, 120 hours
[7] = LN-229, LN229 MGMT+/MMR−, 120 hours
[8] = LN-229, LN229 MGMT+/MMR+, 120 hours

SMILES	IC50 ([1]; LN-229, 120 h)	IC50 ([2]; LN-229, 120 h)	IC50 ([3]; LN-229, 120 h)	IC50 ([4]; LN-229, 120 h)	IC50 [1, 5]	IC50 [2, 6]	IC50 [3, 7]	IC50 [4, 8]
CCNC(=O)c1ncn2c(=O)n(CCOC(F)(F)F)nnc12 [Compound I-3, N-Ethyl-4-oxo-3-(2-(trifluoromethoxy)ethyl)-3,4-dihydroimidazo[5,1-d][1,2,3,5]tetrazine-8-carboxamide]	50 to 100 µM	50 to 100 µM	> 100 µM	> 100 µM				
CN(C)C(=O)c1ncn2c(=O)n(CCOC(F)(F)F)nnc12 [Compound I-4, N,N-Dimethyl-4-oxo-3-(2-(trifluoromethoxy)ethyl)-3,4-dihydroimidazo[5,1-d][1,2,3,5]tetrazine-8-carboxamide]					20 to 50 µM	20 to 50 µM	20 to 50 µM	50 to 100 µM
O=C(NC1CCCC1)c1ncn2c(=O)n(CCOC(F)(F)F)nnc12 [Compound I-5, N-Cyclopentyl-4-oxo-3-(2-(trifluoromethoxy)ethyl)-3,4-dihydroimidazo[5,1-d][1,2,3,5]tetrazine-8-carboxamide]					20 to 50 µM	50 to 100 µM	> 100 µM	> 100 µM
O=C(NC1CC1)c1ncn2c(=O)n(CCOC(F)(F)F)nnc12 [Compound I-6, N-Cyclopropyl-4-oxo-3-(2-(trifluoromethoxy)ethyl)-3,4-dihydroimidazo[5,1-d][1,2,3,5]tetrazine-8-carboxamide]					20 to 50 µM	< 20 µM	< 20 µM	20 to 50 µM
O=C(c1ncn2c(=O)n(CCOC(F)(F)F)nnc12)N1CCCC1 [Compound I-7, 8-(Pyrrolidine-1-carbonyl)-3-(2-(trifluoromethoxy)ethyl)imidazo[5,1-d][1,2,3,5]tetrazin-4(3H)-one]					20 to 50 µM	20 to 50 µM	50 to 100 µM	20 to 50 µM
O=C(Nc1ccccn1)c1ncn2c(=O)n(CCOC(F)(F)F)nnc12 [Compound I-8, 4-Oxo-N-(2-pyridyl)-3-[2-(trifluoromethoxy)ethyl]imidazo[5,1-d][1,2,3,5]tetrazine-8-carboxamide]					20 to 50 µM	50 to 100 µM	> 100 µM	> 100 µM
O=C(Nc1ccccc1)c1ncn2c(=O)n(CCOC(F)(F)F)nnc12 [Compound I-9, 4-Oxo-N-phenyl-3-(2-(trifluoromethoxy)ethyl)-3,4-dihydroimidazo[5,1-d][1,2,3,5]tetrazine-8-carboxamide]	< 20 µM	20 to 50 µM	> 100 µM	50 to 100 µM				
CN1CCN(C(=O)c2ncn3c(=O)n(CCOC(F)(F)F)nnc23)CC1 [Compound I-10, 8-(4-Methylpiperazine-1-carbonyl)-3-(2-(trifluoromethoxy)ethyl)imidazo[5,1-d][1,2,3,5]tetrazin-4(3H)-one]					20 to 50 µM	20 to 50 µM	50 to 100 µM	50 to 100 µM
CN(C)CCN(C)C(=O)c1ncn2c(=O)n(CCOC(F)(F)F)nnc12 [Compound I-11, N-(2-(Dimethylamino)ethyl)-N-methyl-4-oxo-3-(2-(trifluoromethoxy)ethyl)-3,4-dihydroimidazo[5,1-d][1,2,3,5]tetrazine-8-carboxamide]	< 20 µM	< 20 µM	50 to 100 µM	50 to 100 µM				
NCCNC(=O)c1ncn2c(=O)n(CCOC(F)(F)F)nnc12 [Compound I-12, Hydrochloride Salt of N-(2-Aminoethyl)-4-oxo-3-(2-(trifluoromethoxy)ethyl)-3,4-dihydroimidazo[5,1-d][1,2,3,5]tetrazine-8-carboxamide]					20 to 50 µM	50 to 100 µM	> 100 µM	> 100 µM
NC(=O)c1ncn2c(=O)n(CCCOCC(F)(F)F)nnc12 [Compound I-22]					> 100 µM	> 100 µM	> 100 µM	> 100 µM
NC(=O)c1ncn2c(=O)n(COC(C(F)(F)F)C(F)(F)F)nnc12 [Compound I-23]					> 100 µM	> 100 µM	> 100 µM	> 100 µM
CNC(=O)c1ncn2c(=O)n(CCOC(F)(F)F)nnc12 [Compound I-26]					< 20 µM	20 to 50 µM	> 100 µM	> 100 µM
[2H]C([2H])(OC(F)(F)F)C([2H])([2H])n1nnc2c(C(N)=O)ncn2c1=O [Compound I-29, 4-Oxo-3-(2-(trifluoromethoxy)ethyl-1,1,2,2-d4)-3,4-dihydroimidazo[5,1-d][1,2,3,5]tetrazine-8-carboxamide]					< 20 µM	20 to 50 µM	> 100 µM	> 100 µM
CCOC(=O)c1ncn2c(=O)n(CCOC(F)(F)F)nnc12 [Compound I-30, Ethyl 4-Oxo-3-(2-(trifluoromethoxy)ethyl)-3,4-dihydroimidazo[5,1-d][1,2,3,5]tetrazine-8-carboxylate]	< 20 µM	> 100 µM	> 100 µM	> 100 µM				
NC(=S)c1ncn2c(=O)n(CCOC(F)(F)F)nnc12 [Compound I-31, 4-Oxo-3-(2-(trifluoromethoxy)ethyl)-3,4-dihydroimidazo[5,1-d][1,2,3,5]tetrazine-8-carbothioamide]					< 20 µM	20 to 50 µM	> 100 µM	> 100 µM
N=C(N)c1ncn2c(=O)n(CCOC(F)(F)F)nnc12 [Compound I-34, 4-Oxo-3-(2-(trifluoromethoxy)ethyl)-3,4-dihydroimidazo[5,1-d][1,2,3,5]tetrazine-8-carboximidamide]					< 20 µM	< 20 µM	50 to 100 µM	50 to 100 µM
O=c1n(CCOC(F)(F)F)nnc2c(Cl)ncn12 [Compound I-39, 8-Chloro-3-(2-(trifluoromethoxy)ethyl)imidazo[5,1-d][1,2,3,5]tetrazin-4(3H)-one]					< 20 µM	< 20 µM	20 to 50 µM	< 20 µM
NC(=O)c1ncn2c(=O)n(CCOC(F)F)nnc12 [Compound I-44]					> 100 µM	> 100 µM	> 100 µM	> 100 µM
O=c1n(CCOC(F)(F)F)nnc2c(-c3nc4ccccc4[nH]3)ncn12 [II-1, 8-(1H-Benzo[d]imidazol-2-yl)-3-(2-(trifluoromethoxy)ethyl)imidazo[5,1-d][1,2,3,5]tetrazin-4(3H)-one]					> 100 µM	< 20 µM	50 to 100 µM	< 20 µM
O=c1n(CCOC(F)(F)F)nnc2c(-c3ncc(-c4ccccc4)o3)ncn12 [II-2, 8-(5-Phenyloxazol-2-yl)-3-(2-(trifluoromethoxy)ethyl)imidazo[5,1-d][1,2,3,5]tetrazin-4(3H)-one]					20 to 50 µM	50 to 100 µM	20 to 50 µM	< 20 µM
